Measurements: patent US11351178B2, “Selective HDAC6 inhibitors” (ITALFARMACO S.P.A., priority 2017, dated 2022)

How the values were obtained:
[1] = system: B 697 promyelocytic cell line; experiment: Cytotoxicity on 697 cell line (CellTiter 96); assay type: cell-based; settings: 72 hours incubation, read-out: 697 TOXICITY
How it was run: (§1)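 Cells seeded (2×10^4/well for 697, 5×10^5/well for PBMCs); compounds added after 24 h at 1–10000 nM (697) or 1.5–10000 nM (PBMCs) and incubated 72 h. Viability read by CellTiter 96 Aqueous One tetrazolium assay of mitochondrial function.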

[2] = system: peripheral blood mononuclear cells (PBMCs); experiment: Cytotoxicity on PBMCs (CellTiter 96); assay type: cell-based; settings: PBMC, 72 h; read-out: PBMC TOXICITY (72 h)
How it was run: as §1

[3] = Stability in human plasma; assay type: in vitro ADME; settings: after 4 hours, 37° C.
How it was run: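 Compounds incubated at 37° C in rat or human plasma at 50 μM (UV/HPLC) or 1 or 2 μM (LC-MS/MS) for 0–4 h. Reaction stopped with acidified acetonitrile on ice; percent remaining versus initial amount and plasma half-life calculated.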

HDAC2 = target: T1, HDAC2 (Homo sapiens, UniProt Q92769); experiment: Enzymatic test HDAC2; assay type: biochemical; settings: Table 3
T1 construct: purchased BPS 50002

HDAC5 = target: T2, HDAC5 (Homo sapiens, UniProt Q9UQL6); experiment: Enzymatic test HDAC5; assay type: biochemical; settings: Table 3
T2 construct: purchased BPS 50005
Method: (§2) After a period of incubation at 30° C. (incubation times vary for different isoforms and are shown in table 1) 25 μL of solution containing the substrate were added. As substrate, FLUOR DE LYS® deacetylase substrate (Enzo Life Sciences, cat #BML-K1104, FdL), FLUOR DE LYS®-Green substrate (Enzo Life Sciences, cat #BML-K1572 FdL_G) and trifluoroacetyl-L-lysine (Tfal)-2× concentrated solution in 25 mM Tris-HCl, pH 8, 130 mM NaCl 0.05% Tween-20 10% glycerol) were used. Following a reaction period at 30° C.

HDAC11 = target: T3, HDAC11 (Homo sapiens, UniProt Q96DB2); experiment: Enzymatic test HDAC11; assay type: biochemical; settings: Table 3
T3 construct: purchased BML SE560
T3 sequence (Q96DB2 1-347): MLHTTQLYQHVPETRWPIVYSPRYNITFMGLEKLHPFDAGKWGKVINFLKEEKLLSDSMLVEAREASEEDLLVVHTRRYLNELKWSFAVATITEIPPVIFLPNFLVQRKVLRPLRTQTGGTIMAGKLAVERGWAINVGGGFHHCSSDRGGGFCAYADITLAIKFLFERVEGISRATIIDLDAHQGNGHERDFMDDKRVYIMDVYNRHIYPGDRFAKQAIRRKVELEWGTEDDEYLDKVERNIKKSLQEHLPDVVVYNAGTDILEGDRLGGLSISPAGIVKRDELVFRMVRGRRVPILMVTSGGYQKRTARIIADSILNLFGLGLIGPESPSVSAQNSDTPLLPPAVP
Method: as §2

HDAC10 = target: T4, HDAC10 (Homo sapiens, UniProt Q969S8); experiment: Enzymatic test HDAC10; assay type: biochemical; settings: Table 3
T4 construct: purchased BPS 50010
T4 sequence (Q969S8 1-669): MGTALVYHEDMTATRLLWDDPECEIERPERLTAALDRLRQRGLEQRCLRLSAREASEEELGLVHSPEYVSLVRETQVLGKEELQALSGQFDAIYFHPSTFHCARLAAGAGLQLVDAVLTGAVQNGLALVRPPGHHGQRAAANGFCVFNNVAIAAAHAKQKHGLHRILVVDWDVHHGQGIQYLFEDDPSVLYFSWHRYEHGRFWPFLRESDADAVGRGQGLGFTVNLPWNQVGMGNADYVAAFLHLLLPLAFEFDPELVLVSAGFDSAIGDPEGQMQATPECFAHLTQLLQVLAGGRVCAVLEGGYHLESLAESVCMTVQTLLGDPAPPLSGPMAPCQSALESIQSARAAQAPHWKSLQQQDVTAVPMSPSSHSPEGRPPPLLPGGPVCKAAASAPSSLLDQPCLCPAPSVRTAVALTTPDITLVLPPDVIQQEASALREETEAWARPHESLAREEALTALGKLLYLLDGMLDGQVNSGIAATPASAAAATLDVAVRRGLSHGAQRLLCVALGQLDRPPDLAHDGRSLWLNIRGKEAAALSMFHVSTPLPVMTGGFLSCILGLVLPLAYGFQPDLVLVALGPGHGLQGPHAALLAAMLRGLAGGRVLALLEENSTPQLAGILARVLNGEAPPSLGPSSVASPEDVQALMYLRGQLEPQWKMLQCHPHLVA

recombinant human HDAC3 = target: T5, recombinant human HDAC3 (Homo sapiens, UniProt O15379); experiment: Enzymatic screening on recombinant human HDAC3; assay type: biochemical; settings: Table 3
T5 construct: purchased BPS 50003
Method: Enzymatic activity on recombinant human HDAC6 and HDAC3 was evaluated (Table 2) for each synthesized compound.
as §2

HDAC7 = target: T6, HDAC7 (Homo sapiens, UniProt Q8WUI4); experiment: Enzymatic test HDAC7; assay type: biochemical; settings: Table 3
T6 construct: purchased BPS 50007
T6 sequence (Q8WUI4 518-952 limits assumed): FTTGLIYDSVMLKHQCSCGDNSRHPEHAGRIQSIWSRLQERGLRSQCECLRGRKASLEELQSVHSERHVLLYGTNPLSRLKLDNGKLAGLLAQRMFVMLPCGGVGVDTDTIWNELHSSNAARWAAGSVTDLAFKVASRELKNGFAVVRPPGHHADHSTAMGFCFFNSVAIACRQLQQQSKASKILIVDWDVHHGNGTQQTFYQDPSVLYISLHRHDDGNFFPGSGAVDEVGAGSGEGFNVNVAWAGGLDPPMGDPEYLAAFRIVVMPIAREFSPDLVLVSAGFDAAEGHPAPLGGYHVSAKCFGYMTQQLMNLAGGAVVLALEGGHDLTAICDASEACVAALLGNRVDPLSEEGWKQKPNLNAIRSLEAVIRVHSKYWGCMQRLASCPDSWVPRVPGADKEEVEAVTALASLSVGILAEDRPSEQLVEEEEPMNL
Method: as §2

T2 sequence (Q9UQL6 656-1122 limits assumed): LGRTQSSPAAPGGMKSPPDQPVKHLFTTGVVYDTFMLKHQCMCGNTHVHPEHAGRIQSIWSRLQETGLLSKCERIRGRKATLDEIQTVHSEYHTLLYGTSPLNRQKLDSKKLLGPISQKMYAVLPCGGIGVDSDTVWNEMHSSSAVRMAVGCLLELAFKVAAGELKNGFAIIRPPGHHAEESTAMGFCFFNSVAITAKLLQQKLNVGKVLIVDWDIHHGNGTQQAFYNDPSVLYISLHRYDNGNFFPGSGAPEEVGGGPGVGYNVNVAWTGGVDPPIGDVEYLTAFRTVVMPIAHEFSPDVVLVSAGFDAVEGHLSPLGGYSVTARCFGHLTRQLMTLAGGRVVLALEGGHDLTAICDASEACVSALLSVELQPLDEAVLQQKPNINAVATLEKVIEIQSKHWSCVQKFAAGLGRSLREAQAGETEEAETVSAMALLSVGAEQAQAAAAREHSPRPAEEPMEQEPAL
T1 sequence (Q92769 whole entry): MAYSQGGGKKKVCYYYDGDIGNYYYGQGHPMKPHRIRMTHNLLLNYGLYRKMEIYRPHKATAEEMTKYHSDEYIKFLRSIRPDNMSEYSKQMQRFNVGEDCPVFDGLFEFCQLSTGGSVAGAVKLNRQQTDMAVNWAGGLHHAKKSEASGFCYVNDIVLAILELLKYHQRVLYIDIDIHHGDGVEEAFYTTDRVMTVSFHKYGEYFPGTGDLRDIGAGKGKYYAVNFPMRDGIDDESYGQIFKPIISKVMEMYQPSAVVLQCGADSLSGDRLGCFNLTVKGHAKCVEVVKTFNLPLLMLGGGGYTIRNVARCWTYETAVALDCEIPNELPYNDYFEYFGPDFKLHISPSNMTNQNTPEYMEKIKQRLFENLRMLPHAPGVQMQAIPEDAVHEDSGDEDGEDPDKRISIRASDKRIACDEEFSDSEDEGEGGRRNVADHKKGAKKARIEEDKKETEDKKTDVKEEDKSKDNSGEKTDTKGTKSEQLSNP
T5 sequence (O15379 whole entry): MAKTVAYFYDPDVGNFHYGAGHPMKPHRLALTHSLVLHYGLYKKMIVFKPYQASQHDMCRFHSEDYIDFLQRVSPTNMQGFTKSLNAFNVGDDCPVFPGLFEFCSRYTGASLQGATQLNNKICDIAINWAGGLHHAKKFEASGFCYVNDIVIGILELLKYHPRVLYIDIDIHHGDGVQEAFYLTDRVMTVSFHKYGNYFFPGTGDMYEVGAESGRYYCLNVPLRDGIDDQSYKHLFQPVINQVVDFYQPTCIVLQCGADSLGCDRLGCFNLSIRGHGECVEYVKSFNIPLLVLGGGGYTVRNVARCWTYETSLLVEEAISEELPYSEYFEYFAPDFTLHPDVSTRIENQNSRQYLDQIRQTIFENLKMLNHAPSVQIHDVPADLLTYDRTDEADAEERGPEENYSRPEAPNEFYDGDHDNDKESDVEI
T5 sequence (Q9Y618 395-489 partner limits assumed): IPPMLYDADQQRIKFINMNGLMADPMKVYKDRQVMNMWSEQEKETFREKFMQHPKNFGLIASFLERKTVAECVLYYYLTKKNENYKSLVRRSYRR

IC50 (HDAC2) [nM]	IC50 (HDAC5) [nM]	IC50 (HDAC11) [nM]	IC50 (HDAC10) [nM]	IC50 (recombinant human HDAC3) [nM]	IC50 (HDAC7) [nM]	Compound	IC50 [1] [nM]	IC50 [2] [nM]	residual percentage in human plasma [3] [%]
						O=C(NO)c1ccc(Cn2nnnc2-c2cccs2)cc1 [comp. 8, N-hydroxy-4-((5-(thiophen-2-yl)-1H-tetrazol-1-yl)methyl)benzamide]	8880	3500	91
2030	4810	486	1100	568	6670	O=C(NO)c1ccc(Cn2nnc(-c3ccc(C(F)(F)F)cc3)n2)cc1 [comp. 23, 4-[[5-[4-(trifluoromethyl)phenyl]tetrazol-2-yl]methyl]benzenecarbohydroxamic acid]			
1570	1170	568	636	373	1030	Nn1c(Sc2ccc(C(=O)NO)cc2)nnc1-c1ccc(OC(F)F)cc1 [comp. 28, 4-[[4-amino-5-[4-(difluoromethoxy)phenyl]-1,2,4-triazol-3-yl]sulfanyl]benzenecarbohydroxamic acid]			
810	2360	225	441	138	608	O=C(NO)c1ccc(Cn2nnc(-c3ccccc3F)n2)cc1 [comp. 33, 4-[[5-(2-fluorophenyl)tetrazol-2-yl]methyl]benzenecarbohydroxamic acid]			
958	1950	245	398	154	611	O=C(NO)c1ccc(Cn2nnc(-c3cccs3)n2)cc1 [comp. 50, 4-[[5-(2-thienyl)tetrazol-2-yl]methyl]benzenecarbohydroxamic acid]			
1750	3690	282	591	206	1510	O=C(NO)c1ccc(Cc2nnc(-c3ccc(F)cc3F)o2)cc1 [comp. 58, 4-((5-(2,4-difluorophenyl)-1,3,4-oxadiazol-2-yl)methyl)-N-hydroxybenzamide]			
2320	4120	515	542	448	820	CN(C)S(=O)(=O)c1cccc(-c2nnn(Cc3ccc(C(=O)NO)cc3)n2)c1 [comp. 59, 4-[[5-[3-(dimethylsulfamoyl)phenyl]tetrazol-2-yl]methyl]benzenecarbohydroxamic acid]			
6910	2510	904	991	488	529	CCN(CC)S(=O)(=O)c1cccc(-c2nnc(Sc3ccc(C(=O)NO)cc3)n2N)c1 [comp. 61, 4-[[4-amino-5-[3-(diethylsulfamoyl)phenyl]-1,2,4-triazol-3-yl]sulfanyl]benzenecarbohydroxamic acid]			
17700	1190	975	1450	1860	1080	O=C(NO)c1cc(F)c(Cn2nnc(-c3cccs3)n2)c(F)c1 [comp. 65, 3,5-difluoro-4-[[5-(2-thienyl)tetrazol-2-yl]methyl]benzenecarbohydroxamic acid]			
1040	325	1010	1340	921	214	CCN(CC)S(=O)(=O)c1cccc(-c2nnc(Sc3ccc(C(=O)NO)cc3)n2C)c1 [comp. 66, 4-[[5-[3-(diethylsulfamoyl)phenyl]-4-methyl-1,2,4-triazol-3-yl]sulfanyl]benzenecarbohydroxamic acid]			
						O=C(NO)c1cc(F)c(Cn2nnnc2-c2ncccn2)c(F)c1 [comp. 125, 3,5-difluoro-4-[(5-pyrimidin-2-yltetrazol-1-yl)methyl]benzenecarbohydroxamic acid]	> 10000	> 10000	77
						Cn1c(Sc2c(F)cc(C(=O)NO)cc2F)nnc1-c1cccc(CN2CCCCCC2)c1 [comp. 167, 4-[[5-[3-(azepan-1-ylmethyl)phenyl]-4-methyl-1,2,4-triazol-3-yl]sulfanyl]-3,5-difluoro-benzenecarbohydroxamic acid]	43000	> 10000	91
						Cn1c(Sc2c(F)cc(C(=O)NO)cc2F)nnc1-c1ccc(CN2CCCCCC2)cc1 [comp. 168, 4-[[5-[4-(azepan-1-ylmethyl)phenyl]-4-methyl-1,2,4-triazol-3-yl]sulfanyl]-3,5-difluoro-benzenecarbohydroxamic acid]	36900	7000	
						Nc1ccc(-c2nnn(Cc3c(F)cc(C(=O)NO)cc3F)n2)cc1 [comp. 171, 4-[[5-(4-aminophenyl)tetrazol-2-yl]methyl]-3,5-difluoro-benzenecarbohydroxamic acid]	6140	> 10000	88
						Cn1c(Sc2c(F)cc(C(=O)NO)cc2F)nnc1-c1cccnn1 [comp. 179, 3,5-difluoro-4-[(4-methyl-5-pyridazin-3-yl-1,2,4-triazol-3-yl)sulfanyl]benzenecarbohydroxamic acid]	50300	> 10000	100
						Cn1c(Sc2c(F)cc(C(=O)NO)cc2F)nnc1-c1ncccc1F [comp. 180, 3,5-difluoro-4-[[5-(3-fluoro-2-pyridyl)-4-methyl-1,2,4-triazol-3-yl]sulfanyl]benzenecarbohydroxamic acid]	40200	> 10000	97
						O=C(NO)c1cc(F)c(Cc2nnc(-c3ccncc3)s2)c(F)c1 [compound 195, 3,5-difluoro-4-[[5-(4-pyridyl)-1,3,4-thiadiazol-2-yl]methyl]benzenecarbohydroxamic acid]	3120	> 10000	93

Compound	IC50 (HDAC2) [nM]	IC50 (HDAC5) [nM]	IC50 (HDAC11) [nM]	IC50 (HDAC10) [nM]	IC50 (recombinant human HDAC3) [nM]	IC50 (HDAC7) [nM]	IC50 [1] [nM]	IC50 [2] [nM]	residual percentage in human plasma [3] [%]
O=C(NO)c1cc(F)c(Cn2nnnc2-c2cccs2)c(F)c1 [comp. 15, 3,5-difluoro-N-hydroxy-4-((5-(thiophen-2-yl)-1H-tetrazol-1-yl)methyl)benzamide]	8800	706	4590	8630	6290		8720	> 10000	91
